Measurements taken from patent US20260176270A1 (Exelixis, Inc., priority 2022, published 2026).
Where two headings read alike, the source gives them in different places.

What was measured:
[1] = system: phosphorylation of CDK1 at Thr14 in HCC1806 cells; assay: Cell lysate AlphaLISA assay measuring inhibition of phosphorylation of CDK1 Thr14; assay type: cell-based; details: read-out: Cellular IC50
Method in brief: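 HCC1806 cells seeded overnight, then treated 4 h at 37 °C, 5% CO2 with compounds in DMSO; washed and lysed, lysates frozen overnight at −80 °C. CDK1 Thr14 phosphorylation read by AlphaLISA SureFire Ultra; data normalized to DMSO (0% inhibition) and 3 μM reference compound to give IC50.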

PKMYT1 = biological target: T1, PKMYT1 (Homo sapiens, UniProt Q99640); assay: ADP-Glo PKMYT1 ATP-depletion assay; details: 50 nM PKMYT1, 13.3 nM CDK1, read-out: Biochemical IC50
T1 construct: PKMYT1 (93 kD, full length, N-terminal GST tag from Signal Chem); GST (N); purchased Signal Chem
T1 sequence (Q99640 1-499): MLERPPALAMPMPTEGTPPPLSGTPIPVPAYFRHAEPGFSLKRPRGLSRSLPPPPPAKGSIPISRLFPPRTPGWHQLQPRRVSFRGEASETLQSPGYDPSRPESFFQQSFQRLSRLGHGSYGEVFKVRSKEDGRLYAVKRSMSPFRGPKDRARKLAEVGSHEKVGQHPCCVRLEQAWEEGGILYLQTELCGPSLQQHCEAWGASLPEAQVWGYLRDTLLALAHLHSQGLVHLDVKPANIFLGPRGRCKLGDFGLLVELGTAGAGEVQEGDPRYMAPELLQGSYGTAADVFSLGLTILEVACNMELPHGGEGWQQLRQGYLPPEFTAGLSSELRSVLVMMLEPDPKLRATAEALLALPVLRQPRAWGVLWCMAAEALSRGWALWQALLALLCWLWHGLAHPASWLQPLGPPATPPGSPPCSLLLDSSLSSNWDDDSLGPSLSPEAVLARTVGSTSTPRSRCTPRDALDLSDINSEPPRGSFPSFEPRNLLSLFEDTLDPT
Method in brief: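 Full-length N-terminal GST-tagged PKMYT1 (50 nM) with GST-CDK1 (13.3 nM) as substrate and 88 µM ATP, in Hepes buffer with MgCl2, MnCl2, DTT and BSA; DMSO <1%. Incubated 120 min at RT. ADP formed was quantified by ADP-Glo luminescence and used to derive biochemical IC50.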

IC50 ([1]; 4 hours)	IC50 (PKMYT1)	IC50 ([1]; Homo sapiens, HCC1806, 4 h)	Compound
≥ 5000 nM	≥ 5000 nM		Cc1c(O)cccc1-c1c(N)c(C(N)=O)nc2cc(C(F)(F)F)ccc12 (atropisomer, axis not shown) [Compound 148]
	1000 to 5000 nM	≥ 5000 nM	Cc1c(O)cccc1-c1cc(C(N)=O)cc2nccnc12 [Compound 80, 8-(3-Hydroxy-2-methylphenyl)quinoxaline-6-carboxamide]
1000 to 5000 nM	50 to 500 nM		Cc1c(O)cccc1-c1c(N)c(C(N)=O)cc2ncccc12 [Compound 67, 6-Amino-5-(3-hydroxy-2-methylphenyl)quinoline-7-carboxamide]
	50 to 500 nM	≥ 5000 nM	NC(=O)c1cc2nccnc2c(-c2cncc(O)c2)c1N [Compound 145]
500 to 1000 nM	50 to 500 nM		Cc1cnc2cc(C(N)=O)c(N)c(-c3cccc(O)c3C)c2n1 (atropisomer, axis not shown) [Compound 169]
	500 to 1000 nM	≥ 5000 nM	COc1ccc2nc(C(N)=O)c(N)c(-c3cncc(C(F)F)c3C)c2n1 [Compound 314]
	1000 to 5000 nM	≥ 5000 nM	Cn1ncc2c(-c3c(N)c(C(N)=O)nc4cccnc34)cncc21 [Compound 332]
50 to 500 nM	< 50 nM		Cc1ccc(O)c(C)c1-c1c(N)c(C(N)=O)cc2nc(C(F)(F)F)cnc12 (single isomer, unassigned) [Compound 112, (P)-7-Amino-8-(3-hydroxy-2,6-dimethylphenyl)-3-(trifluoromethyl)quinoxaline-6-carboxamide]
	≥ 5000 nM	≥ 5000 nM	Cc1ccc(O)c(C)c1-c1c(N)c(C(N)=O)nc2c(C)cccc12 (single isomer, unassigned) [Compound 32]
50 to 500 nM	50 to 500 nM		COc1nc2c(-c3cccc(O)c3C)c(N)c(C(N)=O)cc2nc1C [Compound 173]
1000 to 5000 nM	50 to 500 nM		Cc1ccc(O)cc1-c1c(N)c(C(N)=O)cc2nccnc12 [Compound 123, 7-Amino-8-(5-hydroxy-2-methylphenyl)quinoxaline-6-carboxamide]
≥ 5000 nM	1000 to 5000 nM		COc1nc2c(-c3cccc(O)c3C)c(N)c(C(N)=O)cc2nc1C (atropisomer, axis not shown) [Compound 224]
	≥ 5000 nM	≥ 5000 nM	Cc1c(-c2c(N)c(C(N)=O)cc3nccnc23)ccnc1O [Compound 159]
	< 50 nM	50 to 500 nM	Cc1c(O)cccc1-c1c(N)c(C(N)=O)cc2nccnc12 [Compound 73, 7-Amino-8-(3-hydroxy-2-methyl-phenyl)quinoxaline-6-carboxamide]
< 50 nM	< 50 nM		Cc1ccc(O)c(C)c1-c1c(N)c(C(N)=O)nc2cccnc12 (single isomer, unassigned) [Compound 9, (P)-3-Amino-4-(3-hydroxy-2,6-dimethylphenyl)-1,5-naphthyridine-2-carboxamide]
1000 to 5000 nM	500 to 1000 nM		Cc1ccc(O)c(C)c1-c1c(N)c(C(N)=O)nc2ccc(C(F)(F)F)cc12 (single isomer, unassigned) [Compound 40, (M)-3-Amino-4-(3-hydroxy-2,6-dimethylphenyl)-6-(trifluoromethyl)quinoline-2-carboxamide]
≥ 5000 nM	50 to 500 nM		Cc1c(O)cccc1-c1c(N)c(C(N)=O)cc2c1ncc(=O)n2C (atropisomer, axis not shown) [Compound 284]
	1000 to 5000 nM	1000 to 5000 nM	Cc1c(O)cccc1-c1c(N)c(C(N)=O)nc2cc(Cl)ccc12 [Compound 37, 3-Amino-7-chloro-4-(3-hydroxy-2-methylphenyl)quinoline-2-carboxamide]
≥ 5000 nM	≥ 5000 nM		Cc1cnc2cc(C(N)=O)c(N)c(-c3c(C)ccc(O)c3C)c2n1 (atropisomer, axis not shown) [Compound 192]
	< 50 nM	50 to 500 nM	Cc1cnc2c(-c3c(C)ccc(O)c3C)c(N)c(C(N)=O)cc2c1 (atropisomer, axis not shown) [Compound 213]
	< 50 nM	50 to 500 nM	CCOc1ccc2nc(C(N)=O)c(N)c(-c3cccc(O)c3C)c2n1 [Compound 154]
	50 to 500 nM	1000 to 5000 nM	Cc1ccc(O)c(C)c1-c1c(N)c(C(N)=O)nc2c(F)cccc12 [Compound 25]

IC50 ([1]; 4 hours)	IC50 (PKMYT1)	IC50 ([1]; Homo sapiens, HCC1806, 4 h)	Compound
1000 to 5000 nM	50 to 500 nM		Cc1ccc(O)c(C)c1-c1c(N)c(C(N)=O)nc2ccc(Cl)cc12 (single isomer, unassigned) [Compound 53, (M)-3-Amino-6-chloro-4-(3-hydroxy-2,6-dimethylphenyl)quinoline-2-carboxamide]
	50 to 500 nM	< 50 nM	COc1ccnc2cc(C(N)=O)c(N)c(-c3cccc(O)c3C)c12 [Compound 333]
50 to 500 nM	< 50 nM		Cc1c(O)cccc1-c1c(N)c(C(N)=O)nc2cccc(F)c12 (single isomer, unassigned) [Compound 57, (P)-3-Amino-5-fluoro-4-(3-hydroxy-2-methylphenyl)quinoline-2-carboxamide]
50 to 500 nM	< 50 nM		Cc1c(O)cccc1-c1c(N)c(C(N)=O)nc2cc(C(F)(F)F)cnc12 (atropisomer, axis not shown) [Compound 166]
	500 to 1000 nM	≥ 5000 nM	Cc1ccc2[nH]ncc2c1-c1c(N)c(C(N)=O)nc2ccccc12 [Compound 17, 3-Amino-4-(5-methyl-1H-indazol-4-yl)quinoline-2-carboxamide]
	500 to 1000 nM	1000 to 5000 nM	Cc1ccc(O)c(C)c1-c1c(N)c(C(N)=O)nc2c(C)cccc12 [Compound 27, 3-Amino-4-(3-hydroxy-2,6-dimethylphenyl)-8-methylquinoline-2-carboxamide]
50 to 500 nM	< 50 nM		Cc1nc2cc(C(N)=O)c(N)c(-c3cccc(O)c3C)c2nc1C (single isomer, unassigned) [Compound 92, (P)-7-Amino-8-(3-hydroxy-2-methylphenyl)-2,3-dimethylquinoxaline-6-carboxamide]
50 to 500 nM	< 50 nM		NC(=O)c1cc2nccnc2c(-c2cccc(O)c2Cl)c1N (single isomer, unassigned) [Compound 105, (P)-7-Amino-8-(2-chloro-3-hydroxyphenyl)quinoxaline-6-carboxamide]
	< 50 nM	50 to 500 nM	Cc1ccc(O)c(C)c1-c1c(N)c(C(N)=O)cc2nc(C)c(C)nc12 [Compound 94, 7-Amino-8-(3-hydroxy-2,6-dimethylphenyl)-2,3-dimethylquinoxaline-6-carboxamide]
50 to 500 nM	50 to 500 nM		COc1nc2cc(C(N)=O)c(N)c(-c3cccc(O)c3C)c2nc1C [Compound 172]
	≥ 5000 nM	≥ 5000 nM	Cc1cc(O)c(C)c(-c2c(N)c(C(N)=O)nc3cccnc23)c1 (atropisomer, axis not shown) [Compound 285]
500 to 1000 nM	< 50 nM		COc1nc2c(-c3cccc(O)c3C)c(N)c(C(N)=O)cc2nc1C (atropisomer, axis not shown) [Compound 218]
≥ 5000 nM	1000 to 5000 nM		Cc1c(O)cc(Cl)cc1-c1c(N)c(C(N)=O)nc2cccnc12 (atropisomer, axis not shown) [Compound 289]
	≥ 5000 nM	≥ 5000 nM	Cc1cc2c[nH]nc2cc1-c1c(N)c(C(N)=O)nc2cccnc12 [Compound 205]
50 to 500 nM	< 50 nM		Cc1cnc2c(-c3cccc(O)c3C)c(N)c(C(N)=O)cc2n1 (atropisomer, axis not shown) [Compound 209]
≥ 5000 nM	≥ 5000 nM		Cc1ccc(O)c(C)c1-c1c(N)c(C(N)=O)nc2ccc(C(F)(F)F)cc12 (single isomer, unassigned) [Compound 41, (P)-3-amino-4-(3-hydroxy-2,6-dimethylphenyl)-6-(trifluoromethyl)quinoline-2-carboxamide]
	1000 to 5000 nM	≥ 5000 nM	Cn1c(-c2c(N)c(C(N)=O)nc3cccnc23)cccc1=O [Compound 158]
	≥ 5000 nM	≥ 5000 nM	Cc1ccc2[nH]ncc2c1-c1cc(C(N)=O)nc2ccccc12 [Compound 15, 4-(5-Methyl-1H-indazol-4-yl)quinoline-2-carboxamide]
	1000 to 5000 nM	≥ 5000 nM	Cc1c(O)cccc1-c1ccnc2nc(C(N)=O)c(N)cc12 [Compound 233]
1000 to 5000 nM	50 to 500 nM		Cc1c(O)cccc1-c1c(N)c(C(N)=O)cc2nc(C(F)(F)F)cnc12 [Compound 96, 7-Amino-8-(3-hydroxy-2-methylphenyl)-3-(trifluoromethyl)quinoxaline-6-carboxamide]
50 to 500 nM	< 50 nM		CCn1ccc2cc(C(N)=O)c(N)c(-c3cccc(O)c3C)c2c1=O (atropisomer, axis not shown) [Compound 329]
